The values that follow come from US20230227484A1, “PYRIMIDINE COMPOUND AS AXL INHIBITOR” (NANJING CHIA TAI TIANQING PHARMACEUTICAL CO., LTD., priority 2020, published 2023).

Data set [1] relates to human acute monocytic leukemia cell MV-4-11 xenograft tumor. The experiment in a line: In-vivo efficacy of compound for MV4-11 xenograft tumor model of nude mouse. The settings on record: MV4-11, po, once a day, end of experiment, MV-4-11 xenograft nude mice; for response vs control in vivo at 5 mg/kg/day / inhibition in vivo at 5 mg/kg/day: intragastric 5 mg/kg/d. The procedure:
Inhibitory effects of a compound and a positive drug on the in-vivo tumor growth of a xenograft tumor model of a nude mouse on human acute monocytic leukemia cell MV-4-11 are tested.
MV-4-11 cells in a logarithmic growth phase are harvested, resuspended after cell counting, and adjusted in cell concentration to 7.0×10^7 cells/mL. The resuspended solution is injected into the right armpit of the nude mice subcutaneously. Each animal is inoculated with 200 μL (14×10^6 cells) of the suspended solution to establish a MV-4-11 xenograft tumor model. Afer the tumor volume reaches 100-300 mm^3, tumor-bearing mice in good health and similar tumor volume are selected.
The compound and the positive drug are vortexed with a suitable solvent and then ultrasonicated to completely dissolve the compound. Then, an appropriate volume of citric acid buffer is slowly added, and the mixed solution is vortexed to make the solution mixed uniformly to obtain administrative formulations having concentrations of 0.1, 0.5, and 1 mg-mL^−1.
Solvent control group: PEG400 & citric acid buffer (20:80, v:v).
The modeled mice are randomly divided into groups (n=6), and administrated with the relevant compounds and positive drugs on the day of grouping. After 21 days or after the tumor volume of the solvent control group reaches 2000 mm^3, the experiment is terminated (whichever reaches the index first), and the administration volume is 10 mL-kg^−1. Both the compound and the positive drug are administered by gavage, once a day. After the experiment starts, the tumor diameter and animal body weight are measured twice a week, and the tumor volume is calculated.
The tumor volume(TV) calculation formula is: tumor volume(mm^3)=l×w^2/2,
The calculation formula of relative tumor volume(RTV) is: RTV=TVt/TVinitial
The calculation formula of relative tumor proliferation rate (% T/C) is: % T/C=100%×(RTVT/RTVC)

The nature of data set [2]: Pharmacokinetic study of compounds on ICR mice. In kind it is in vivo. The settings on record: mouse, po, male ICR mice, plasma; for Cmax / Tmax / half-life: 10 mg-kg^1 by gavage; for AUC(0-t): 10 mg/kg-kg^1 by gavage, read-out: AUC0-24. The procedure: Each compound is prepared with DMSO into a 10 mg/mL stock solution.
Preparation of mixed solvent: Tween 80: PEG400: Water=1:9:90 (v/v/v)
450 μl of the compound DMSO stock solution with a concentration of 10 mg/nmL is accurately sucked into a glass bottle, and added with an appropriate volume of DMSO and mixed solvent, wherein a ratio of the solvent in the final formulation is DMSO: mixed solvent (v/v)=10:90. The mixed solution is vortexed (or ultrasonically treated), and dispersed uniformly to obtain 4.5 mL. administration test solutions with a concentration of 1 mg/nL, respectively.
Male 6-10 week old ICR mice (sourced from: Beijing Vital River Laboratory Animal Technology Co., Ltd.) are taken, 6 mice in each group. The mice are fasted overnight and fed 4 h after the administration. On the day of the experiment, the mice are administrated with 10 mg-kg^1 of compound test solution by gavage. After administration, about 100 μL of blood is harvested from the orbits of the mice at 0 min, 5 mmn, 15 mmn, 30 min, 14 h 2 h, 4 h, 8 h, and 24 h, and placed in EDTA-K2 anticoagulant tubes. The whole blood sample is centrifuged at 1500 to 1600 g for 10 mm, and the plasma obtained by separation is stored in a refrigerator at −40 to −20° C. for biological sample analysis. The blood drug concentration is determined by an LC-MS/MS method.
A non-compartmental model in Pharsight Phoenix 7.0 is used to calculate pharmacokinetic parameters. The specific results are shown in 5 the table below.

Setting [3] is: read-out: Relative tumor proliferation rate (% T/C).
The mark [4] stands for this setting: read-out: Tumor growth inhibition rate (TGI %).

By Cmax is commonly meant the peak of the concentration-time curve. As a reminder, the Tmax is the time from dosing to the highest level. As usually defined, the half-life is how long it takes for the measured level to halve. Read a low half-life as fast loss. For the molecule `CP(C)(=O)c1ccccc1Nc1nc(Nc2ccc3c(c2)CC[C@@H](N2CCCC2)CC3)ncc1Cl` [Example 10, (S)-(2-((5-chloro-2-((7-(pyrrolidin-1-yl)-6,7,8,9-tetrahydro-5H-benzo[7]annulen-2-yl)amino)pyrimidin-4-yl)amino)phenyl)dimethyl phosphine oxide], the response vs control in vivo at 5 mg/kg/day in data set [1] (setting [3]) was 3.7%. Moreover, the inhibition in vivo at 5 mg/kg/day in data set [1] (setting [4]) stood at 106%. In data set [2], the Cmax came out at 349 ng/mL, the Tmax was 0.25 h, the half-life is 3.33 h and the AUC(0-t) worked out at 1000 ng·h/mL.
For `COCc1ccc(Nc2nc(Nc3ccc4c(c3)CC[C@@H](N3CCCC3)CC4)ncc2Cl)c(P(C)(C)=O)c1` [Example 115, (S)-(2-((5-chloro-2-((7-(pyrrolidin-1-yl)-6,7,8,9-tetrahydro-5H-benzo[7]annulen-2-yl)amino)pyrimidin-4-yl)amino)-5-(methoxymethyl)phenyl)dimethylphosphine oxide], the response vs control in vivo at 5 mg/kg/day in data set [1] (setting [3]) was 23%. For the same molecule, the inhibition in vivo at 5 mg/kg/day in data set [1] (setting [4]) was found to be 85%. Further, in data set [2], the Cmax was found to be 324 ng/mL, the Tmax worked out at 2.17 h and the AUC(0-t) was found to be 1300 ng·h/mL.
Turning to `Cc1ccc(Nc2nc(Nc3ccc4c(c3)CC[C@@H](N3CCCC3)CC4)ncc2Cl)c(P(C)(C)=O)c1` [Example 53, (S)-(2-((5-chloro-2-((7-(pyrrolidin-1-yl)-6,7,8,9-tetrahydro-5H-benzo[7]annulen-2-yl)amino)pyrimidin-4-yl)amino)-5-methylphenyl) dimethyl phosphine oxide], in data set [1] (setting [3]), the response vs control in vivo at 5 mg/kg/day was 31%. Besides, in data set [1] (setting [4]), the inhibition in vivo at 5 mg/kg/day was 79%. In data set [2], the Cmax turned out to be 676 ng/mL, the Tmax came to 1 h, the half-life was 1.81 h and the AUC(0-t) was 2200 ng·h/mL.
Consider `CNC(=O)c1cc(F)ccc1Nc1nc(Nc2ccc3c(c2)CC[C@@H](N2CCCC2)CC3)ncc1Cl` [Example 19, (S)-2-((5-chloro-2-((7-(pyrrolidin-1-yl)-6,7,8,9-tetrahydro-5H-benzo[7]annulen-2-yl)amino)pyrimidin-4-yl)amino)-5-fluoro-N-methylhenzamide], for which, in data set [1] (intragastric 1 mg/kg/d, read-out: Relative tumor proliferation rate (% T/C)), the response vs control in vivo at 1 mg/kg/day worked out at 28%. In addition, the inhibition in vivo at 1 mg/kg/day in data set [1] (intragastric 1 mg/kg/d, read-out: Tumor growth inhibition rate (TGI %)) turned out to be 78%. In data set [2], the Cmax is 342 ng/mL, the Tmax turned out to be 1 h, the half-life was 3.05 h and the AUC(0-t) turned out to be 3540 ng·h/mL.
Consider `CP(C)(=O)c1c(Nc2nc(Nc3ccc4c(c3)CC[C@@H](N3CCCC3)CC4)ncc2Cl)ccc2nccnc12` [Example 47, (S)-(6-((5-chloro-2-((7-(pyrrolidin-1-yl)-6,7,8,9-tetrahydro-5H-benzo[7]annulen-2-yl)amino)pyrimidin-4-yl)amino)quinoxalin-5-yl)dimethyl phosphine oxide], for which the response vs control in vivo at 5 mg/kg/day in data set [1] (setting [3]) amounted to 15%. In addition, the inhibition in vivo at 5 mg/kg/day in data set [1] (setting [4]) worked out at 94%. In addition, in data set [2], the Cmax was determined as 69 ng/mL, the time to peak (Tmax) worked out at 1 h, the half-life was 2.06 h and the AUC(0-t) was determined as 307 ng·h/mL.
